According to publication PMC12700550, “DLL4^+ neutrophils promote Notch1-mediated endothelial PANoptosis to exacerbate acute lung injury in sepsis” (The Journal of Clinical Investigation, 2025):

Assays:
[1] = target: Recombinant murine (rm) Notch1 (murine) (UniProt Q01705); experiment: SPR; as a1, same HS-NTA sensor with rmNotch1; rmDLL4 at all concentrations preincubated with 1 ug/mL NDI for 30 minutes at room temperature before injection; 40 uL/min, 20°C; global 1:1 fit
[2] = target: Recombinant murine (rm) Notch1 (murine) (UniProt Q01705); experiment: SPR; OpenSPR (Nicoya), HS-NTA sensor activated with NiCl2; rmNotch1 (25 ug/mL) immobilised on channel 2; rmDLL4 as analyte at 5, 12.5, 50 and 100 nM, 40 uL/min; PBS, 0.005% P20, pH 7.4; channel 1 subtracted; global 1:1 fit
ZBP1 [3] = experiment: ZBP1 mRNA in PVECs cocultured with neutrophils, RT-PCR (DAPT, NDI, peptides 1–5); format: cell-based, mouse; settings: DAPT, DLL4^+ neutrophil–PVEC coculture
Description: Immortalized mouse (Mus musculus) lung endothelial cells with polyoma middle T (PVECs) were purchased from Applied Biological Materials Inc. (ABM) and grown in 1:1 PriGrow VI Medium and PriGrow IV Medium (ABM).
(§1) Wild-type PVECs (5 × 10^5) were cocultured with sorted DLL4^+ neutrophils (5 × 10^5) or DLL4^– neutrophils (5 × 10^5) and then treated with different dosages of peptides or 10 μM DAPT (Thermo Fisher Scientific), 10 μM NDI (GenScript), or 10 μM NDI scramble (GenScript). Notch1-knockdown PVECs (5 × 10^5) were cocultured with sorted DLL4^+ neutrophils (5 × 10^5). After 16 hours, neutrophils were washed away by PBS, and PVECs were collected for further experiments. Cell viability was evaluated by propidium iodide staining using the FITC Annexin V Apoptosis Detection Kit I (catalog 556547, BD Pharmingen). Cell death was quantified as the percentage of propidium iodide–positive cells by flow cytometry.
mRNA was extracted from lung tissues with TRIzol reagent (Invitrogen, Thermo Fisher Scientific). An equal amount ([…]) of mRNA was reverse-transcribed into cDNA using the reverse transcriptase enzyme (Invitrogen, Thermo Fisher Scientific). qPCR was performed from the diluted cDNA templates with forward and reverse primers (Supplemental Table 4) and SYBR Green PCR Master Mix (Applied Biosystems, Thermo Fisher Scientific) using an Applied Biosystems 7300 real-time PCR machine. Mouse β-actin served as an internal control gene for normalization. Relative expression of mRNA was represented as fold change in comparison with the sham group.

ZBP1 [4] = experiment: ZBP1 protein in PVECs cocultured with neutrophils, Western blot; format: cell-based, mouse; settings: DAPT
Description: as §1
(§2) PVECs and lung tissue were collected in previous steps. Whole-cell proteins were extracted, and the protein concentration was measured using an ABC protein assay kit (catalog 5000002, Bio-Rad). Proteins were separated using NuPAGE 4%–12% Bis-Tris gels (Invitrogen), transferred to PVDF membranes, and immunoblotted with the antibodies indicated in the figure legends according to the manufacturer’s recommendations. The ZBP1 antibody (catalog PA5-20455; 1:1,000) used in this study was obtained from Thermo Fisher Scientific, and the c-GSDMD (catalog 10137S; 1:250), GSDMD (catalog 39754S; 1:1000), c-caspase-3 (catalog 9661L; 1:250), caspase-3 (catalog 9662S; 1:1,000), p-MLKL (catalog 37333S; 1:250), MLKL (catalog 37705S; 1:1,000), N1ICD (c-Notch1) (catalog 4147S; 1:250), and Notch1 (catalog 3608S; 1:1,000) antibodies were obtained from Cell Signaling Technology. GAPDH (catalog 60004-1-Ig; 1:10,000) and β-actin (catalog A5441, Sigma-Aldrich; 1:5,000) were obtained from ProteinTech. After the blots were incubated with primary antibodies, the membranes were washed 3 times, and the blots were subsequently incubated with the corresponding fluorescent secondary antibody (LI-COR). Bands were detected using an Odyssey FC Dual-Mode Imaging system 2800 (LI-COR).

c-GSDMD = experiment: c/t GSDMD (pyroptosis) in PVECs cocultured with neutrophils, Western blot; format: cell-based, mouse; settings: DAPT
Description: as §1, §2

c-caspase-3 = experiment: c/t caspase-3 (apoptosis) in PVECs cocultured with neutrophils, Western blot; format: cell-based, mouse; settings: DAPT
Description: as §1, §2

p-MLKL = experiment: p-MLKL/MLKL (necroptosis) in PVECs cocultured with neutrophils, Western blot; format: cell-based, mouse; settings: DAPT
Description: as §1, §2

rmNotch1 = target: T1, rmNotch1 (Mus musculus, UniProt Q01705); experiment: BIAcore assay (surface plasmon resonance), rmDLL4 to immobilized rmNotch1; format: binding, murine; settings: OpenSPR, HS-NTA sensor, rmDLL4 5–100 nM, PBS 0.005% P20 pH 7.4, 20°C, 1:1 fit; without NDI; read-out: KD between DLL4 and Notch1
T1 construct: purchased R&D Systems 5267-TK (rmNotch1); 1389-D4-050/CF (rmDLL4)
T1 sequence (Q01705 with tags, fused parts or gaps limits assumed, one chain of several): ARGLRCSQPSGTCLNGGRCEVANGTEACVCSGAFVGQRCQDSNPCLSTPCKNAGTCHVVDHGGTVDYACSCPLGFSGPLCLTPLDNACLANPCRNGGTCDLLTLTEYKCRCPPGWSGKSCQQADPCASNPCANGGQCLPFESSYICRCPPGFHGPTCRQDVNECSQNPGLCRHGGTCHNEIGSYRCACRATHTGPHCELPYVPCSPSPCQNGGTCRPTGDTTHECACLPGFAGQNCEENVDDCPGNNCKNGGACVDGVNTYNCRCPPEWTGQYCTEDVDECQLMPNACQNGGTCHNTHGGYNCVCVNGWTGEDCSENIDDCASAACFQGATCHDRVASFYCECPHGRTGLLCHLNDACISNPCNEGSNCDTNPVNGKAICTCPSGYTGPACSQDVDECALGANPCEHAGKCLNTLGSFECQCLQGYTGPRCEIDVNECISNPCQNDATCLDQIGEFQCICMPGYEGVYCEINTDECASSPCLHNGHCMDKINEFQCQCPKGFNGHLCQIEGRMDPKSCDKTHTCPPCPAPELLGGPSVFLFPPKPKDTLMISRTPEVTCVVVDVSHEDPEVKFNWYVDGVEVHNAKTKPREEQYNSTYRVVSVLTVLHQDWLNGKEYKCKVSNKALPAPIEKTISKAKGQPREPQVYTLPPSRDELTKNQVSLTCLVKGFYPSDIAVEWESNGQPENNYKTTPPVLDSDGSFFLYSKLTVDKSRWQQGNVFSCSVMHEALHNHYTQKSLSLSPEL
Description: To determine rmDLL4’s direct interaction with rmNotch1, surface plasmon resonance (OpenSPR, Nicoya) was performed. High-sensitivity nitrilotriacetic acid (HS-NTA) sensors were used. Binding reactions were performed in running buffer (PBS, 0.005% P20, pH 7.4). The HS-NTA sensor was first cleaned by injection with 10 mM HCl (150 μL) followed by injection of 150 μL of 350 mM EDTA. […] For the effect of NDI efficacy on rmDLL4 binding to rmNotch1, the same HS-NTA sensor was used. rmDLL4 at all the concentrations used for binding with rmNotch1 was preincubated with 1 μg/mL NDI for 30 minutes at room temperature, and then the complexes were injected to channels 1 and 2. Binding reactions were carried out with the same running buffer at a flow rate of 40 μL/min at 20°C. Channel 1 was used as a control to evaluate nonspecific binding. The real-time interaction data were analyzed by Trace Drawer (Nicoya). The signals from channel 1 were subtracted from channel 2 coated with the ligand for all samples. Data were globally fitted for 1:1 binding (one-to-one model).

[5] = DLL4^+ neutrophil–stimulated PVECs
[6] = DLL4^– neutrophil–treated PVECs

Sequence of Recombinant murine (rm) Notch1 (murine) (Q01705 19-2531): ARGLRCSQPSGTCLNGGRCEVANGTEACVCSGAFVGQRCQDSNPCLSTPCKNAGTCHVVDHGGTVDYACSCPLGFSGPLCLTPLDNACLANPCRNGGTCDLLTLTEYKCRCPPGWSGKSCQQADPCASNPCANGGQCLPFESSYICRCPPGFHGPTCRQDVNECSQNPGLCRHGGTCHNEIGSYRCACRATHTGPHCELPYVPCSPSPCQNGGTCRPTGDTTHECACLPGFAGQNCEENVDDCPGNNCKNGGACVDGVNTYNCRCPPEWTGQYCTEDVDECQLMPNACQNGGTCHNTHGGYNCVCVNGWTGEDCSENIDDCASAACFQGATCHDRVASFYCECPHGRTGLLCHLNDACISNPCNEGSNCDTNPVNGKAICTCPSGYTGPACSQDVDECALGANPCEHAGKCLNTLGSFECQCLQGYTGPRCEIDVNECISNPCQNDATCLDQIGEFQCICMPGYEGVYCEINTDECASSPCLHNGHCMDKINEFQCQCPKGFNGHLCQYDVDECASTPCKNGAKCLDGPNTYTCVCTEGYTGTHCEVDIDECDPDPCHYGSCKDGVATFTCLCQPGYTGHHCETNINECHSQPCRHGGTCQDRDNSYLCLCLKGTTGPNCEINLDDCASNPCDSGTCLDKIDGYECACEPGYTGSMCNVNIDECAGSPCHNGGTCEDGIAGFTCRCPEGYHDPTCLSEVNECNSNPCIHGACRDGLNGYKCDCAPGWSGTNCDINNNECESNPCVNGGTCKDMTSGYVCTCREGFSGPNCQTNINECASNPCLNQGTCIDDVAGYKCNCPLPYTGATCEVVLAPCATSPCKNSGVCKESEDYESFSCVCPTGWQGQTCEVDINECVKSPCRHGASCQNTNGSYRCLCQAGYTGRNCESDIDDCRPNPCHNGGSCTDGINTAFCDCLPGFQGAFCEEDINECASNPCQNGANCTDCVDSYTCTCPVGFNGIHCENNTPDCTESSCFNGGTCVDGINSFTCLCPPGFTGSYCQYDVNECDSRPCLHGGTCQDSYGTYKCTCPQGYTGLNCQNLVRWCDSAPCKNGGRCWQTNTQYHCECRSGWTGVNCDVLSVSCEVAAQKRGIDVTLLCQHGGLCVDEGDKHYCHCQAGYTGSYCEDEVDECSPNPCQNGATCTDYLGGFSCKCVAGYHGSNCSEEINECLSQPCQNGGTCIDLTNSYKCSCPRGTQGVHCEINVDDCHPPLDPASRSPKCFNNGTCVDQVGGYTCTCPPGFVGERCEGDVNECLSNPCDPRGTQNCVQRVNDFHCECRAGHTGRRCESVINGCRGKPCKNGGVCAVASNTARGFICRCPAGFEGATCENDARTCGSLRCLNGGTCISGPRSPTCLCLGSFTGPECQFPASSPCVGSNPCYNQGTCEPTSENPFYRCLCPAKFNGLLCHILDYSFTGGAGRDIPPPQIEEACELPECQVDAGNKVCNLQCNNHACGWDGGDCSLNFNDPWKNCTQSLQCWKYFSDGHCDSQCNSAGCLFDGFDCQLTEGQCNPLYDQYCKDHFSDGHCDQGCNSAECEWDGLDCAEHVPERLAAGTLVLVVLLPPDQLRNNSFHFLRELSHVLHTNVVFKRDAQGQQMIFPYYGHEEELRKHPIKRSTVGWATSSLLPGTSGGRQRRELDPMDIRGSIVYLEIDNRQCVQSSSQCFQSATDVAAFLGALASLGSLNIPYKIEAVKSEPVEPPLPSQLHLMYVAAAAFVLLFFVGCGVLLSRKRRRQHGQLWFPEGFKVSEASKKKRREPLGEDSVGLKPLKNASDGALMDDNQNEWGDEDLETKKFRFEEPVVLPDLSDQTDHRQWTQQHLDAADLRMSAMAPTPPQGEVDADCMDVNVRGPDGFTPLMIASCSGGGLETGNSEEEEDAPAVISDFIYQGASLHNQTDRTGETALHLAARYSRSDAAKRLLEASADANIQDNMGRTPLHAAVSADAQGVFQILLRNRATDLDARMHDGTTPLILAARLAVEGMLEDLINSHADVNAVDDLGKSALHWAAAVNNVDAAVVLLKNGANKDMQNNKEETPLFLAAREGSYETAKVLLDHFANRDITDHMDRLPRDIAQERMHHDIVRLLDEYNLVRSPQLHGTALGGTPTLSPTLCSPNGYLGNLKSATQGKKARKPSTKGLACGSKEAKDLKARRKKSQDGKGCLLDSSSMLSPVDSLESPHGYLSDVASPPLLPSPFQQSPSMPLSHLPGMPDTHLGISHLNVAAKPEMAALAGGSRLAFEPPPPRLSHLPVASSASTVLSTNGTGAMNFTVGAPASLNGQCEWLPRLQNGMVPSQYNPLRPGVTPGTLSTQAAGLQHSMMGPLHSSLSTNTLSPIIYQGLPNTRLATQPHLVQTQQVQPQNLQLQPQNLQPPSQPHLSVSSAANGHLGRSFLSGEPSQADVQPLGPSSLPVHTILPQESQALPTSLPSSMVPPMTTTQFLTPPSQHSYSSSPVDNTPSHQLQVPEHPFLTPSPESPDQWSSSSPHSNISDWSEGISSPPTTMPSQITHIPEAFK

With “Recombinant murine (rm) DLL4 (from UniProt Q9JI71 27-532) (ligand)” the KD with NDI present [1] was 237 nM and the Kd [2] was 42.6 nM.

`C[C@H](NC(=O)Cc1cc(F)cc(F)c1)C(=O)N[C@H](C(=O)OC(C)(C)C)c1ccccc1` [DAPT, N-[N-(3,5-difluorophenacetyl)-L-alanyl]-S-phenylglycine t-butyl ester, reference compound] was tested, and the “effect on ZBP1 mRNA” value (ZBP1 [3]) was “reduced it to the baseline levels”, the “effect on ZBP1” value (ZBP1 [4]; [5]) was “significantly reduced the elevated expression” and the “effect on ZBP1” value (ZBP1 [4]; [6]) was “did not significantly reduce”. For the same molecule, the “effect on c-GSDMD” value (c-GSDMD; [5]) was “significantly reduced the elevated expression”, the “effect on c-GSDMD” value (c-GSDMD; [6]) was “did not significantly reduce” and the “effect on c-caspase-3” value (c-caspase-3; [5]) was “significantly reduced the elevated expression”. The “effect on c-caspase-3” value (c-caspase-3; [6]) was “did not significantly reduce”, the “effect on p-MLKL” value (p-MLKL; [5]) was “significantly reduced the elevated expression” and the “effect on p-MLKL” value (p-MLKL; [6]) was “did not significantly reduce”.

B1: DLL4: Recombinant murine DLL4, R&D Systems (protein)
chain: GSGIFQLRLQEFVNQRGMLANGQSCEPGCRTFFRICLKHFQATFSEGPCTFGNVSTPVLGTNSFVVRDKNSGSGRNPLQLPFNFTWPGTFSLNIQAWHTPGDDLRPETSPGNSLISQIIIQGSLAVGKIWRTDEQNDTLTRLSYSYRVICSDNYYGESCSRLCKKRDDHFGHYECQPDGSLSCLPGWTGKYCDQPICLSGCHEQNGYCSKPDECICRPGWQGRLCNECIPHNGCRHGTCSIPWQCACDEGWGGLFCDQDLNYCTHHSPCKNGSTCSNSGPKGYTCTCLPGYTGEHCELGLSKCASNPCRNGGSCKDQENSYHCLCPPGYYGQHCEHSTLTCADSPCFNGGSCRERNQGSSYACECPPNFTGSNCEKKVDRCTSNPCANGGQCQNRGPSRTCRCRPGFTGTHCELHISDCARSPCAHGGTCHDLENGPVCTCPAGFSGRRCEVRITHDACASGPCFNGATCYTGLSPNNFVCNCPYGFVGSRCEFPVGLPPSFPWVA
For B1, the Kd (rmNotch1) was 42.6 nM.
